Measurements taken from patent publication US11084829B2, “Ubiquitin-specific-processing protease 7 (USP7) modulators and uses thereof” (RAPT THERAPEUTICS, INC., priority 2018, dated 2021).

Molecular target: USP7 (Homo sapiens, UniProt Q93009)
Test: USP7 inhibitory potency (IC50)
Type: biochemical
Experimental: Activity for compounds described herein is provided in Table 2, wherein potency levels are provided as follows: (Potency: USP7 IC50: A<0.01 μM; B=0.01-0.1 μM; C=>0.1 μM.

Sequence of USP7 (Q93009 whole entry): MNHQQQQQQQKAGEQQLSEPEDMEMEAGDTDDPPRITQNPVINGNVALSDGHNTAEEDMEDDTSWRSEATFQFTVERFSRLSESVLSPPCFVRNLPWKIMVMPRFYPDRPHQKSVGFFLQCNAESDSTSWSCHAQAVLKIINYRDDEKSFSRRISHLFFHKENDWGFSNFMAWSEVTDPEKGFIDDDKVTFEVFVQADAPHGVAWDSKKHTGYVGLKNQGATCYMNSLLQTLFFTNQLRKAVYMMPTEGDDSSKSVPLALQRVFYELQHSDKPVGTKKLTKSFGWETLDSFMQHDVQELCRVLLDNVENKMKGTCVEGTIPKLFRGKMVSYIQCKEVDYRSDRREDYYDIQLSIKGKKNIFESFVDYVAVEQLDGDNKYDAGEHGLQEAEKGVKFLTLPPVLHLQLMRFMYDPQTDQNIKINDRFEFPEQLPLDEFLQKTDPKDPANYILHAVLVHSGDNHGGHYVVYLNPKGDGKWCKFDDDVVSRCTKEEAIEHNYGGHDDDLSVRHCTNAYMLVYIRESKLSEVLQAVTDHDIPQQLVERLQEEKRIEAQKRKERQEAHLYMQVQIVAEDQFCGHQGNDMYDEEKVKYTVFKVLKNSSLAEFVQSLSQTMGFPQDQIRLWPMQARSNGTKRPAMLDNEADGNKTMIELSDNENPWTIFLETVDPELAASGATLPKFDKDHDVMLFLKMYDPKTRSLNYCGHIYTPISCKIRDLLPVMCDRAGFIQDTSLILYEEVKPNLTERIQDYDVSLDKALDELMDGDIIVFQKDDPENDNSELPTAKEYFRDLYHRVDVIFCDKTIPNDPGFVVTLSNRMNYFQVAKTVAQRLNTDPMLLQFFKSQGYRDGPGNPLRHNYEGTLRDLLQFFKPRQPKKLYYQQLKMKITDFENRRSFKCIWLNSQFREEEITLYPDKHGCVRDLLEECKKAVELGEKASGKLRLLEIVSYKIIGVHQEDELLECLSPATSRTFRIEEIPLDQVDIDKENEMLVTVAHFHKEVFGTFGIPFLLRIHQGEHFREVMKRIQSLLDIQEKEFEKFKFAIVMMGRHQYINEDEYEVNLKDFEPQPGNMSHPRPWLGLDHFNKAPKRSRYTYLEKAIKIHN

Row | IC50 [nM] | Compound
1 | < 10 | Cc1cc(Cl)cc(-c2ccnc3cc(CN4C(=O)C5CC5C4=O)sc23)c1CC1CNCCOC1 (centres unmarked) [Example 112, 3-((7-(2-((1,4-oxazepan-6-yl)methyl)-5-chloro-3-methylphenyl)thieno[3,2-b]pyridin-2-yl)methyl)-3-azabicyclo[3.1.0]hexane-2,4-dione]
2 | < 10 | 3-((7-(5-chloro-2-(((2S,6S)-2,6-dimethyl piperazin-1-yl)methyl)-3-methylphenyl)thieno[3,2-b]pyridin-2-yl)methyl)-1-methylpyrimidine-2,4(1H,3H)-dione [Example 78]
3 | 10 to 100 | Cc1cc(Cl)cc(-c2ncnc3cc(CN4CC(C(F)F)CC4=O)sc23)c1C[C@@H]1CNCC(C)(C)O1 (stereo partly drawn) [Example 228, 1-((4-(5-chloro-2-(((R)-6,6-dimethylmorpholin-2-yl)methyl)-3-methylphenyl)thieno[3,2-d]pyrimidin-6-yl)methyl)-4-(difluoromethyl)pyrrolidin-2-one]
4 | < 10 | Cc1cc(Cl)cc(-c2ncnc3cc(CN4C(=O)CC[C@@H]4C(F)F)sc23)c1C[C@@H]1CNCC(C)(C)O1 [Example 242, (R)-1-((4-(5-chloro-2-(((R)-6,6-dimethylmorpholin-2-yl)methyl)-3-methylphenyl)thieno[3,2-d]pyrimidin-6-yl)methyl)-5-(difluoromethyl)pyrrolidin-2-one]
5 | 10 to 100 | Cc1cc(Cl)cc(-c2ncnc3cc(CN4CC(CO)CC4=O)sc23)c1C[C@@H]1CNCC(C)(C)O1 (stereo partly drawn) [Example 231, 1-((4-(5-chloro-2-(((R)-6,6-dimethylmorpholin-2-yl)methyl)-3-methylphenyl)thieno[3,2-d]pyrimidin-6-yl)methyl)-4-(hydroxymethyl)pyrrolidin-2-one]
6 | < 10 | Cc1cc(Cl)cc(-c2ccnc3cc([C@H](C)N4C(=O)C5CC5C4=O)sc23)c1C[C@@H]1CNCC(C)(C)O1 (stereo partly drawn) [Example 137, 3-((S)-1-(7-(5-chloro-2-(((R)-6,6-dimethylmorpholin-2-yl)methyl)-3-methylphenyl)thieno[3,2-b]pyridin-2-yl)ethyl)-3-azabicyclo[3.1.0]hexane-2,4-dione]
7 | < 10 | Cc1cc(Cl)cc(-c2ncnc3cc(CN4C(=O)C5CCCN5C4=O)sc23)c1CN1[C@@H](C)CNC[C@@H]1C (stereo partly drawn) [Example 86, 2-((4-(5-chloro-2-(((2S,6S)-2,6-dimethylpiperazin-1-yl)methyl)-3-methylphenyl)thieno[3,2-d]pyrimidin-6-yl)methyl)tetrahydro-1H-pyrrolo[1,2-c]imidazole-1,3(2H)-dione]
8 | < 10 | CN1CCC(=O)N(Cc2cc3nccc(-c4cc(Cl)cc(Cl)c4CC4CNCCO4)c3s2)C1=O (centres unmarked) [Example 130, 3-((7-(3,5-dichloro-2-(morpholin-2-ylmethyl)phenyl)thieno[3,2-b]pyridin-2-yl)methyl)-1-methyldihydropyrimidine-2,4(1H,3H)-dione]
9 | < 10 | Cc1cc(Cl)cc(-c2ncnc3cc(CN4C(=O)C5CC5C4=O)sc23)c1CN1C[C@@H](C)NC[C@@H]1C (stereo partly drawn) [Example 65, 3-((4-(5-chloro-2-(((2S,5R)-2,5-dimethylpiperazin-1-yl)methyl)-3-methylphenyl)thieno[3,2-d]pyrimidin-6-yl)methyl)-3-azabicyclo[3.1.0]hexane-2,4-dione]
10 | < 10 | Cc1cc(Cl)cc(-c2ncnc3cc(Cn4c(=O)c(F)cn(C(C)C)c4=O)sc23)c1CC1CNCCO1 (centres unmarked) [Example 168, 3-((4-(5-chloro-3-methyl-2-(morpholin-2-ylmethyl)phenyl)thieno[3,2-d]pyrimidin-6-yl)methyl)-5-fluoro-1-isopropylpyrimidine-2,4(1H,3H)-dione]
11 | < 10 | Cc1cc(Cl)cc(-c2ccnc3cc(CN4C(=O)C5CCC5C4=O)sc23)c1CC1CNCCO1 (centres unmarked) [Example 110, 3-((7-(5-chloro-3-methyl-2-(morpholin-2-ylmethyl)phenyl)thieno[3,2-b]pyridin-2-yl)methyl)-3-azabicyclo[3.2.0]heptane-2,4-dione]

The next lines start with the compound.

Row | Compound | IC50 [nM]
12 | Cc1cc(Cl)cc(-c2ccnc3cc(CN4C(=O)C5CC5C4=O)sc23)c1CC1CNCC2(COC2)O1 (centres unmarked) [Example 138, 3-((7-(2-((2,5-dioxa-8-azaspiro[3.5]nonan-6-yl)methyl)-5-chloro-3-methylphenyl)thieno[3,2-b]pyridin-2-yl)methyl)-3-azabicyclo[3.1.0]hexane-2,4-dione] | < 10
13 | Cc1cc(Cl)cc(-c2ncnc3cc(Cn4c(=O)ccn(CC(F)(F)F)c4=O)sc23)c1CN1C[C@@H](C)NC[C@@H]1C [Example 73, 3-((4-(5-chloro-2-(((2S,5R)-2,5-dimethylpiperazin-1-yl)methyl)-3-methylphenyl)thieno[3,2-d]pyrimidin-6-yl)methyl)-1-(2,2,2-trifluoroethyl)pyrimidine-2,4(1H,3H)-dione] | < 10
14 | Cc1cc(Cl)cc(-c2ncnc3cc(CN4C(=O)[C@H]5CCCN5C4=O)sc23)c1CN1[C@@H](C)CNC[C@@H]1C [Example 89, (R)-2-((4-(5-chloro-2-(((2S,6S)-2,6-dimethylpiperazin-1-yl)methyl)-3-methylphenyl)thieno[3,2-d]pyrimidin-6-yl)methyl)tetrahydro-1H-pyrrolo[1,2-c]imidazole-1,3(2H)-dione] | < 10
15 | Cc1cc(Cl)cc(-c2ncnc3cc(CN4C(=O)C5C(C4=O)C5(C)C)sc23)c1CN1CCNC[C@@H]1C (stereo partly drawn) [Example 50, 3-((4-(5-chloro-3-methyl-2-(((S)-2-methylpiperazin-1-yl)methyl)phenyl)thieno[3,2-d]pyrimidin-6-yl)methyl)-6,6-dimethyl-3-azabicyclo[3.1.0]hexane-2,4-dione] | < 10
16 | Cc1cc(Cl)cc(-c2ccnc3cc(CN4C(=O)CCC4=O)sc23)c1CN1[C@@H](C)CN(C(C)C)C[C@@H]1C [Example 30, 1-((7-(5-chloro-2-(((2S,6S)-4-isopropyl-2,6-dimethylpiperazin-1-yl)methyl)-3-methylphenyl)thieno[3,2-b]pyridin-2-yl)methyl)pyrrolidine-2,5-dione] | < 10
17 | CC1(C)CNCC(Cc2c(Cl)cc(Cl)cc2-c2ccnc3cc(CN4C(=O)C5CC5C4=O)sc23)O1 (centres unmarked) [Example 139, 3-((7-(3,5-dichloro-2-((6,6-dimethylmorpholin-2-yl)methyl)phenyl)thieno[3,2-b]pyridin-2-yl)methyl)-3-azabicyclo[3.1.0]hexane-2,4-dione] | < 10
18 | Cc1cc(Cl)cc(-c2ccnc3cc(CN4C(=O)C5C(C4=O)C5(C)C)sc23)c1CN1[C@@H](C)CNC[C@@H]1C (stereo partly drawn) [Example 28, 3-((7-(5-chloro-2-(((2S,6S)-2,6-dimethylpiperazin-1-yl)methyl)-3-methylphenyl)thieno[3,2-b]pyridin-2-yl)methyl)-6,6-dimethyl-3-azabicyclo[3.1.0]hexane-2,4-dione] | < 10
19 | Cc1cc(Cl)cc(-c2ncnc3cc(CN4C(=O)CCN(C)C4=O)sc23)c1CC1CNCC2(COC2)O1 (centres unmarked) [Example 238, 3-((4-(2-((2,5-dioxa-8-azaspiro[3.5]nonan-6-yl)methyl)-5-chloro-3-methylphenyl)thieno[3,2-d]pyrimidin-6-yl)methyl)-1-methyldihydropyrimidine-2,4(1H,3H)-dione] | < 10
20 | Cc1cc(Cl)cc(-c2ccnc3cc(CN4C(=O)C5C(C4=O)C5(C)C)sc23)c1CN1C[C@@H](C)NC[C@@H]1C (stereo partly drawn) [Example 39, 3-((7-(5-chloro-2-(((2S,5R)-2,5-dimethylpiperazin-1-yl)methyl)-3-methylphenyl)thieno[3,2-b]pyridin-2-yl)methyl)-6,6-dimethyl-3-azabicyclo[3.1.0]hexane-2,4-dione] | < 10
